Test results as given in paper PMC12744750 (Plant Communications, 2025).
Ends that are not written are not given here.

Experiments:
[1] = test system: pls mutant; experiment: Complementation of pls mutant by proPLS::PLS:GFP transgene; type: in vivo, Arabidopsis thaliana; conditions: single-copy proPLS::PLS:GFP in pls background
Excerpt: proPLS::PLS:GFP comprises a 1.5-kb PLS promoter sequence ([Casson et al., 2002]) fused to the PLS open reading frame in pMDC107 (obtained from Prof. P.J. Hussey, Durham University) as a C-terminal GFP translational fusion. The PLS ORF with its 1.5-kb promoter was amplified from the TOPO 2.1 vector, which contained the PLS gene sequence with promoter ([Casson et al., 2002]); the primers used for cloning are listed in supplemental Table 9. pls mutant plants were transformed using the method of [Clough and Bent (1998)]. proPLS::GFP plants were generated using the 1.5-kb PLS promoter ([Casson et al., 2002]) fused to GFP in a wild-type background. p35S::GFP seedlings were obtained from Dr. Piers Hemsley, Durham University. Seedlings of Arabidopsis thaliana ecotype C24 or Col-0, pls mutants, and transgenic PLS overexpressers, all from lab stocks, were grown on solid sterile half-strength (2.2 g/l) Murashige and Skoog medium (Sigma-Aldrich) containing 10 g/l sucrose (half-strength [½] MS10 medium) solidified with 2.5 g/l Phytagel (Sigma-Aldrich) in 90-mm Petri dishes (Sarstedt, Leicester, UK) at 21°C under a 16-h photoperiod as described previously ([Casson et al., 2002]; [Chilley et al., 2006]). […] Seedlings were scanned to create a digital image, and root lengths of the seedlings were measured using ImageJ. […]

[2] = test system: root epidermal cells, endomembrane markers; experiment: Subcellular localization by confocal microscopy; type: cell-based, Arabidopsis
Excerpt: (§1) proPLS::PLS:GFP comprises a 1.5-kb PLS promoter sequence ([Casson et al., 2002]) fused to the PLS open reading frame in pMDC107 (obtained from Prof. P.J. Hussey, Durham University) as a C-terminal GFP translational fusion. The PLS ORF with its 1.5-kb promoter was amplified from the TOPO 2.1 vector, which contained the PLS gene sequence with promoter ([Casson et al., 2002]); the primers used for cloning are listed in supplemental Table 9. pls mutant plants were transformed using the method of [Clough and Bent (1998)]. proPLS::GFP plants were generated using the 1.5-kb PLS promoter ([Casson et al., 2002]) fused to GFP in a wild-type background. p35S::GFP seedlings were obtained from Dr. Piers Hemsley, Durham University. […] Seedlings were scanned to create a digital image, and root lengths of the seedlings were measured using ImageJ. […]
CSLM images for propidium iodide and GFP were obtained using a Leica SP5 TCS confocal microscope as described previously ([Rowe et al., 2016]). proPLS::PLS:GFP, proPLS::GFP, and pro35S::GFP seedlings were grown for 7 days on Phytagel ½ MS10 medium before ∼25 mm of the root tip was removed and mounted in dH2O prior to imaging. […] For standard photomultiplier tubes, a laser power of 21% and a smart gain of 800–1000 mV were used, depending on the intensity of the fluorescence. […]

[3] = test system: ETR1:HA; experiment: Co-immunoprecipitation of PLS:GFP and ETR1:HA in N. benthamiana leaves; type: binding, Arabidopsis; conditions: Co-IP, western blotting, 3 days after infiltration
Excerpt: To investigate the interaction between the PLS peptide and the ethylene receptor ETR1, two DNA constructs were created by Gateway cloning. The […] PLS gene (without the stop codon) was inserted into the pEarlyGate103 (pEG103) destination vector, which contained the pro35S promoter and a C-terminal GFP tag, to produce a vector containing pro35S::PLS:GFP DNA. The ETR1 cDNA was inserted into the pEarlyGate301 (pEG301) vector to create a pro35S::ETR1:HA construct to express an ETR1 protein with a C-terminal HA tag. pro35S::GFP was used as a control. The primers used to clone ETR1 and PLS are found in supplemental Table 9.
Constructs were transiently expressed in N. benthamiana (tobacco) leaves as described previously ([Voinnet et al., 2003]). Experiments were replicated up to five times. Competent Agrobacterium tumefaciens GV3101 cells were transformed with the desired plasmid containing the gene of interest and injected with a syringe. The plants were approximately 7–10 weeks old; the chosen leaves were healthy and 3–6 cm in length, and 3 to 4 leaves were infiltrated with each construct. […]
SDS–PAGE was used to separate protein fragments. The complexed proteins from the pulldown assay were analyzed on 10%–12% acrylamide gels. […] The horseradish peroxidase conjugated to the secondary antibody was detected using X-ray film. […]

[4] = test system: pls mutant primary root; experiment: Root length of pls mutant under exogenous copper; type: in vivo, Arabidopsis thaliana; conditions: 0-50 μM CuSO4, 12 days, n = 18
Excerpt: as §1
Root length (n = 18 from samples grown on 3 independent plates) was measured after 12 days using ImageJ. […]

Row | Substance | transformants fully complementing pls mutant [1] | co-localization with RFP:HDEL (ER lumen) ([2]; proPLS::PLS:GFP plants) | co-localization with ER Tracker Red ([2]; proPLS::PLS:GFP stably transformed Arabidopsis) | binding of ETR1:HA [3] | copper hypersensitivity of pls mutant [4]
1 | PLS:GFP: fusion protein of PLS with C-terminal GFP (MKPRLCFNFRRRSISPCYISISYLLVAKLFKLFKIH-{GFP}; cysteine pairing not given here) | four | co-localized with the ER lumen–targeted red fluorescent protein RFP:HDEL | co-localized with the ER marker dye ER-Tracker Red | ETR1:HA bound to PLS:GFP | 
2 | copper |  |  |  |  | not copper hypersensitive
